Results reported in article PMC6511888, “Synthesis, Biological Evaluation, and Molecular Modeling Studies of New Thiadiazole Derivatives as Potent P2X7 Receptor Inhibitors” (Frontiers in Chemistry, 2019).
Converted amounts (≈) assume the structure as drawn.

Assays:
[1] = Stability in mouse liver microsomes; format: in vitro ADME; conditions: male, pH 7.4, read-out: LM stability mouse (CLint)
Experimental: Thiadiazole 9f stability was evaluated in liver microsomes from male mice and humans according to Faria et al. in 2018 (Faria et al., [2018]). Both solutions contained a final protein concentration of 0.5 mg/ml (0.1 M phosphate buffer) at pH 7.4. Microsomes were preincubated with 9f (1 μM) and DMSO ([…]) at 37°C before NADPH (1 mM) addition. A control for the reaction was a buffer containing 0.1 M phosphate at pH 7.4 in a final volume of 50 μl. Diazepam and verapamil were used as positive controls for mice and humans, respectively. Both types of microsomes were treated with 9f for 0, 5, 15, 30, and 45 min and the negative control [minus Nicotinamide adenine dinucleotide phosphate (NADPH)] for 45 min. To stop the reactions, methanol (50 μl) was added at the appropriate time points, and the samples were centrifuged (1,640 × g) for 20 min at 4°C to […] protein precipitation.
In vitro intrinsic clearance (CLint mic) for the metabolism of 9f in mouse and human liver microsomes was calculated using the equations below:
Half-life (t1/2) (minutes) = 0.693/k (1)
V(μL/mg) = volume of the incubation solution (μl)/protein in the incubation solution (mg) (2)
Intrinsic clearance (CLint) (μl/minutes/mg protein) = V × 0.693/t1/2 (3) according to the manufacturer's instructions.

[2] = Caco-2 cell permeability; format: in vitro ADME; parameters: Papp at 60 min: dose or concentration left out as unconfirmed; conditions: human, Caco-2, pH 7.4; apical to basolateral (A - B); mean ± standard error of three experiments; read-out: Caco-2 apparent permeability (Papp)
Experimental: Corning® Costar® Transwell plates (Sigma-Aldrich, St. Louis, MO, USA) were used for seeding Caco-2 cells at 3 × 10^5 cells/well bathed with DMEM supplemented with 10% FSB according to Faria and collaborator in 2018 (Faria et al., [2018]). This culture was maintained for up to 21 days in a humidified incubator at 37°C and 5% CO2. Thiadiazole analog, vinblastine (poor permeability control), and propranolol (high permeability control) stock solutions, all at a concentration of 100 mM, were prepared in Hanks' balanced salt solution (HBSS) containing 25 mM HEPES at pH 7.4 with 0.5% (v/v) DMSO. Transport buffer (0.3 ml) was added to each well to equilibrate the cells with the transport buffer. A 24-well enhanced recovery plate containing 1 ml of transport buffer (pH 7.4) was substituted for the feeder tray. The transport buffer in the apical wells was removed, and 0.3 ml of a solution containing thiadiazoles 9b, 9c, 9f, or 11c; vinblastine; or propranolol was added. Then, the cells were replaced for incubation for 60 min. Lucifer yellow concentrations in the donor and acceptor wells were measured in the last of this incubation. Lucifer yellow was measured using an M5 plate reader ([…]) at an excitation wavelength of 485 nm and an emission wavelength of 530 nm.

[3] = Distribution coefficient (Log D) in octanol/PBS pH 7.4; format: physicochemical; conditions: average of three experiments, read-out: Log D7.4
Experimental: Octanol and Phosphate-buffered saline (PBS) solution at a ratio of 1:1 (v/v) at pH 7.4 was shaken mechanically for 24 h to reach presaturation. Crescent octanol volumes (100–400 μl) were added to PBS (396 μl) and thiadiazole 9f (25 mM) in a volume of 4 μl. This solution was shaken for 2 h and centrifuged (3,000 rpm) for 5 min, and the PBS layer was collected 1 h later. To measure the PBS layer absorbance, a 100-μl aliquot (396 μl of PBS containing 4 μl of 9f + 400 μl of acetonitrile) was partitioned with acetonitrile (100 μl; Faria et al., [2018]).

[4] = pH-dependent kinetic solubility; format: physicochemical; conditions: kinetic from dmso stock
Experimental: DMSO stock solutions (5 μl) were added into a 995-μl acetonitrile/buffer (1:1) mixture to prepare the calibration standard solutions. The reaction samples were centrifuged (10,000 rpm, 10 min, 25°C) and diluted 1:1 with acetonitrile (Faria et al., [2018]).

[5] = buffer, aqueous buffer, acidic pH values
[6] = phosphate buffer, pH 7.4, aqueous buffer

| SMILES | microsomal CLint at 1 μM [1] [µL/min/mg] | Papp at 60 min [2] [×10⁻⁶ cm/s] | logD [3] | solubility at 2 h [4, 5] [µM] | solubility at 2 h ([4]; buffer, pH 10, aqueous buffer) [µM] | solubility at 2 h [4, 6] [µM] | melting point [°C] |
| --- | --- | --- | --- | --- | --- | --- | --- |
| N#Cc1cnn(-c2nnc(-c3ccccc3Cl)s2)c1N [Compound 9b] | 14.3 | 50.1 ± 1.1 | -1.2 ± 0.1 | 300 (≈ 90.8 µg/mL) | > 500 | > 500 | 250 to 251 |
| N#Cc1cnn(-c2nnc(-c3ccc(F)cc3)s2)c1N [Compound 9c] | 11.6 | 56.1 ± 2.1 | -0.9 ± 0.1 | 300 (≈ 85.9 µg/mL) | > 500 | > 500 | 262 to 263 |
| CCOC(=O)c1cnn(-c2nnc(-c3ccccc3Cl)s2)c1N [Compound 9f] | 26.7 | 73.4 ± 3.3 | -3.7 ± 0.2 | 300 (≈ 105 µg/mL) | > 500 | > 500 | 190 to 191 |
| Cc1cc(C)n(-c2nnc(-c3ccc(F)cc3)s2)n1 [Compound 11c, 2-(3,5-dimethyl-1H-pyrazol-1-yl)-5-(4-fluorophenyl)-1,3,4-thiadiazole] | 38.5 | 77.9 ± 1 | -4.2 ± 0.4 | 300 (≈ 82.3 µg/mL) | > 500 | > 500 | 174 |
